The text below walks through data of ChEMBL document CHEMBL1151043, “The synthesis and antibacterial activity of 2-para-quarternary ammoniomethylphenyl-carbapenems” (1993).

For assay [1], the target named is T1, Dipeptidase 1 (Sus scrofa) (UniProt P22412).
T1 sequence (whole entry): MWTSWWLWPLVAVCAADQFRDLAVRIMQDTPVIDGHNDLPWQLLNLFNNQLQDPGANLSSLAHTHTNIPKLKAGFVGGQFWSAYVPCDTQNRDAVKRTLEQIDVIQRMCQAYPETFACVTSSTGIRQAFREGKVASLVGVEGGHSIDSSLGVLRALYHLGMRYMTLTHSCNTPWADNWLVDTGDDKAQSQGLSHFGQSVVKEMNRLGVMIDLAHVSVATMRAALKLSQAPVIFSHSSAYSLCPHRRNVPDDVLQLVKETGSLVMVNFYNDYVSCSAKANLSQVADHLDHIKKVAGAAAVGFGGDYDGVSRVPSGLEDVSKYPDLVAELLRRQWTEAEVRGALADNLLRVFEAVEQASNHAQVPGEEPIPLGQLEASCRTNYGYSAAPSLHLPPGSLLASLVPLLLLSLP
The assay can be described thus: Susceptibility of compound towards porcine Dehydropeptidase-1 relative to imipenem as […] was calculated.

The subject of a further assay is Enterococcus. Put plainly: In vitro antibacterial activity against Enterococcus relative to thienamycin. In kind it is functional.
The subject of a further assay is Escherichia coli. Put plainly: In vitro antibacterial activity against Escherichia coli relative to thienamycin. In kind it is functional.
For a further assay, the system named is Enterobacter. Put plainly: In vitro antibacterial activity against Enterobacter relative to thienamycin. In kind it is functional.
The subject of another assay is Klebsiella. The assay can be described thus: In vitro antibacterial activity against Klebsiella relative to thienamycin. It is filed as functional.
A further assay has as its system Pseudomonas. The assay can be described thus: In vitro antibacterial activity against Pseudomonas relative to thienamycin. It is filed as functional.
The next assay relates to Proteus. The assay can be described thus: In vitro antibacterial activity against Proteus relative to thienamycin. It is filed as functional, Proteus sp.
The test system of another assay is Serratia. Put plainly: In vitro antibacterial activity against Serratia relative to thienamycin. It is filed as functional.
For a further assay, the system named is Staphylococcus aureus. Put plainly: In vitro antibacterial activity against Staphylococcus aureus relative to thienamycin. It is filed as functional.

Regarding `C[C@@H](O)[C@H]1C(=O)N2C(C(=O)[O-])=C(c3ccc(C[N+]4(C)CCCCC4)cc3)C[C@H]12`, the Susceptibility in [1] is 0.03. The Relative potency turned out to be 14.9 in the assay with Enterococcus; 5.3 in the assay with Escherichia coli; 8 in the assay with Enterobacter; 1.9 with Klebsiella; 0.03 in the assay on Pseudomonas; 9.8 in the assay on Proteus. The Relative potency with Serratia is listed as 11.3; in the assay on Staphylococcus aureus it was 0.8.
As for `C[C@@H](O)[C@H]1C(=O)N2C(C(=O)[O-])=C(c3ccc(C[n+]4ccccc4)cc3)C[C@H]12`, the Susceptibility in assay [1] is 0.07. Also, the Relative potency with Enterococcus turned out to be 13; in the assay with Escherichia coli, 3.5; in the assay on Enterobacter it was 7; in the assay on Klebsiella, 4.3; in the assay on Pseudomonas, 0.1; in the assay with Proteus, 9.8. The Relative potency with Serratia was found to be 9.8; with Staphylococcus aureus it was 1.3.
For `C[C@@H](O)[C@H]1C(=O)N2C(C(=O)O)=C(c3ccc(CN4CCN(C)CC4)cc3)C[C@H]12`, the Susceptibility in assay [1] is 0.12. Further, the Relative potency in the assay on Enterococcus is reported as 5.7; in the assay with Escherichia coli, 3; with Enterobacter, 4.9; with Klebsiella, 1; with Pseudomonas, 0.04; in the assay with Proteus it was 9.2. Further, the Relative potency with Serratia is on record as 7; in the assay with Staphylococcus aureus, 0.4.
As for `C[C@@H](O)[C@H]1C(=O)N2C(C(=O)O)=C(c3ccc(CN4CCCC4)cc3)C[C@H]12`, in [1], the Susceptibility is 0.04. Further, the Relative potency in the assay with Enterococcus is listed as 12.1; in the assay on Escherichia coli, 2.8; with Enterobacter it was 5.7; in the assay with Klebsiella, 2.1; in the assay on Pseudomonas it was 0.07; in the assay on Proteus it was 8. Further, the Relative potency came to 9.8 in the assay with Serratia and 0.6 with Staphylococcus aureus.
For `C[C@@H](O)[C@H]1C(=O)N2C(C(=O)[O-])=C(c3ccc(C[n+]4ccc(N5CCOCC5)cc4)cc3)C[C@H]12`, in assay [1], the Susceptibility was 0.06. Moreover, the Relative potency in the assay with Enterococcus stood at 4.6; in the assay with Escherichia coli it was 4; with Enterobacter, 9.8; in the assay with Klebsiella it was 2.1; with Pseudomonas it was 0.1; with Proteus, 4.6. Moreover, the values for the Relative potency in the assay on Serratia and in the assay on Staphylococcus aureus were 11.3 and 0.5, respectively.
Take `C[C@@H](O)[C@H]1C(=O)N2C(C(=O)O)=C(c3ccc(CN4CCSCC4)cc3)C[C@H]12`: the Susceptibility in assay [1] was 0.13. Also, the Relative potency in the assay on Enterococcus worked out at 9.2; in the assay with Escherichia coli, 2.3; with Enterobacter, 3.2; with Klebsiella, 1.3; in the assay with Pseudomonas, 0.03; in the assay with Proteus, 7. Also, the Relative potency with Serratia worked out at 7.5; with Staphylococcus aureus, 0.9.
As to `C[C@@H](O)[C@H]1C(=O)N2C(C(=O)[O-])=C(c3ccc(C[N+]4(C)CCOCC4)cc3)C[C@H]12`, in [1], the Susceptibility is 0.02. Moreover, the Relative potency is 10.6 in the assay with Enterococcus; 2 in the assay with Escherichia coli; 5.7 in the assay with Enterobacter; 2.3 in the assay with Klebsiella; 0.02 in the assay with Pseudomonas; 6.1 with Proteus. Also, the values for the Relative potency in the assay with Serratia and in the assay with Staphylococcus aureus were 7.5 and 0.8, respectively.
As for `C[C@@H](O)[C@H]1C(=O)N2C(C(=O)[O-])=C(c3ccc(C[n+]4cccc(C#N)c4)cc3)C[C@H]12`, the Susceptibility in assay [1] is 0.06. Also, the Relative potency worked out at 10.6 in the assay on Enterococcus; 4 in the assay with Escherichia coli; 9.8 with Enterobacter; 2.1 in the assay on Klebsiella; 0.1 with Pseudomonas; 4.6 in the assay with Proteus. For the same compound, the Relative potency in the assay with Serratia worked out at 11.3; with Staphylococcus aureus, 0.9.
With `C[C@@H](O)[C@H]1C(=O)N2C(C(=O)[O-])=C(c3ccc(C[N+]4(C)CCCC4)cc3)C[C@H]12`, the Susceptibility in [1] is 0.03. The Relative potency with Enterococcus stood at 13.9; in the assay with Escherichia coli it was 3.2; in the assay on Enterobacter, 7.5; with Klebsiella, 2.6; in the assay with Pseudomonas it was 0.03; in the assay on Proteus, 8.6. Besides, the figures for the Relative potency with Serratia and in the assay on Staphylococcus aureus were 26 and 0.9, respectively.
As for `C[C@@H](O)[C@H]1C(=O)N2C(C(=O)[O-])=C(c3ccc(C[n+]4cccc(C(=O)O)c4)cc3)C[C@H]12`, the Susceptibility in assay [1] was 0.08.
Consider `C[C@@H](O)[C@H]1C(=O)N2C(C(=O)[O-])=C(c3ccc(C[n+]4ccc5ccccc5c4N)cc3)C[C@H]12`, for which the Susceptibility in assay [1] is 0.14. The Relative potency is 9.2 in the assay with Enterococcus; 2.7 with Escherichia coli; 2.3 in the assay on Enterobacter; 0.7 with Klebsiella; 0.05 in the assay on Pseudomonas; 3.7 in the assay on Proteus. Further, the values for the Relative potency in the assay with Serratia and in the assay on Staphylococcus aureus were 3.7 and 1.3, respectively.
As to `C[C@@H](O)[C@H]1C(=O)N2C(C(=O)[O-])=C(c3ccc(C[n+]4ccc(N5CCCCC5)cc4)cc3)C[C@H]12`, the Susceptibility in assay [1] was 0.11. Besides, the Relative potency with Enterococcus is given as 5.7; in the assay on Escherichia coli it was 2.8; in the assay on Enterobacter, 2.5; with Klebsiella it was 0.5; with Pseudomonas it was 0.05; in the assay on Proteus it was 4. Also, the Relative potency in the assay on Serratia is recorded as 2.8; with Staphylococcus aureus it was 1.1.
On to `CC(O)[C@H]1C(=O)N2C(C(=O)O)=C(c3ccc(CN)cc3)C[C@H]12` (some centres undefined), for which the Relative potency in the assay with Enterococcus worked out at 9.2; in the assay on Escherichia coli it was 3.5; in the assay with Enterobacter it was 11; with Klebsiella it was 3.2; in the assay on Pseudomonas, 0.02; in the assay on Proteus it was 6.5. In addition, the figures for the Relative potency with Serratia and with Staphylococcus aureus were 5.3 and 1.5, respectively.
Consider `C[C@@H](O)[C@H]1C(=O)N2C(C(=O)[O-])=C(c3ccc(C[n+]4cccc(C(F)(F)F)c4)cc3)C[C@H]12`, for which the Susceptibility in assay [1] was 0.04. The Relative potency in the assay on Enterococcus stood at 8; in the assay with Escherichia coli it was 3; in the assay with Enterobacter, 5.7; with Klebsiella, 2.8; in the assay on Pseudomonas, 0.05; with Proteus, 3.7. Further, the values for the Relative potency with Serratia and in the assay on Staphylococcus aureus were 13 and 1.1, respectively.
With `C[C@H](O)[C@H]1C(=O)N2C(C(=O)O)=C(c3ccc(CN)cc3)C[C@H]12`, the Susceptibility in [1] is 0.02.
Take `C[C@@H](O)[C@H]1C(=O)N2C(C(=O)[O-])=C(c3ccc(C[n+]4ccc(N5CCCC5)cc4)cc3)C[C@H]12`: the Susceptibility in assay [1] was 0.33. Moreover, the Relative potency in the assay on Enterococcus is listed as 14.9; in the assay on Escherichia coli, 3.5; in the assay on Enterobacter, 3; with Klebsiella, 0.8; with Pseudomonas it was 0.04; in the assay with Proteus it was 7.5. The Relative potency with Serratia was determined as 7.5; in the assay on Staphylococcus aureus it was 0.6.
Turning to `C[C@@H](O)[C@H]1C(=O)N2C(C(=O)[O-])=C(c3ccc(C[n+]4cccc(N)c4)cc3)C[C@H]12`, the Susceptibility in assay [1] is 0.09. Moreover, the Relative potency in the assay with Enterococcus turned out to be 17.1; in the assay on Escherichia coli, 7.5; with Enterobacter it was 11.3; in the assay with Klebsiella, 4.3; in the assay on Pseudomonas, 0.1; with Proteus, 14.9. Moreover, the Relative potency with Serratia is recorded as 22.6; in the assay with Staphylococcus aureus, 2.3.
Consider `C[C@@H](O)[C@H]1C(=O)N2C(C(=O)[O-])=C(c3ccc(C[n+]4ccc5ccccc5c4)cc3)C[C@H]12`, for which the Susceptibility in assay [1] was 0.08. Also, the Relative potency in the assay on Enterococcus was 24.3; in the assay on Escherichia coli it was 7.5; in the assay with Enterobacter, 11.3; in the assay with Klebsiella, 2; in the assay with Pseudomonas, 0.07; with Proteus, 17.1. Further, the Relative potency came out at 36.8 with Serratia and 1.3 with Staphylococcus aureus.
On to `C[C@@H](O)[C@H]1C(=O)N2C(C(=O)[O-])=C(c3ccc(C[n+]4ccccc4N)cc3)C[C@H]12`, for which the Susceptibility in assay [1] is 0.11. The Relative potency was 21.1 with Enterococcus; 2.8 in the assay on Escherichia coli; 6.1 in the assay on Enterobacter; 2.6 with Klebsiella; 0.08 with Pseudomonas; 8 in the assay with Proteus. The Relative potency in the assay with Serratia is listed as 11.3; in the assay with Staphylococcus aureus it was 1.3.
